Measured values published in patent US6340678B1, “4,4-difluoro-2,3,4,5-tetrahydro-1H-1-benzoazepine derivatives and drug compositions containing them” (Yamanouchi Pharmaceutical Co., Ltd., priority 1997, dated 2002).
Positions of bridges follow the written chain, without caps; N, C: chain ends. Non-standard residues stand in square brackets, D forms with d. Residues, ends and D or L forms follow the SMILES beside them. Orn = NCCC[C@H](N)C(=O)O; Mpa = O=C(O)CCS

Target: T1, oxytocin receptor (Rattus norvegicus, UniProt P70536)
T1 construct: uterus was excised, and a membrane sample was prepared therefrom; from tissue; host or cells: rat uterus (membrane preparation after diethylstilbestrol dipropionate treatment)
T1 sequence (P70536 1-388): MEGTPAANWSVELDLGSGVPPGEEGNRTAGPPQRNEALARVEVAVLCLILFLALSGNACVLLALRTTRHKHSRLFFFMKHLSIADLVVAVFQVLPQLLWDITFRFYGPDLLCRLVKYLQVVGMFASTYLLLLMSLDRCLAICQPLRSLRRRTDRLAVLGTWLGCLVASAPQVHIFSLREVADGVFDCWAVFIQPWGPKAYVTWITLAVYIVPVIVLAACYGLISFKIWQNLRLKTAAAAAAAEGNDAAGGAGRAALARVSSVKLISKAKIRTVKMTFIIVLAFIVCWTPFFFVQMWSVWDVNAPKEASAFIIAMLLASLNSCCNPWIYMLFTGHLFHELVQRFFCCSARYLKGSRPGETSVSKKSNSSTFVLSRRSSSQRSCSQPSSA
Assay: Oxytocin receptor binding assay ([3H]-oxytocin, rat uterine membrane sample)
Procedure: (Oxytocin Receptor Binding Assay)
Preparation of Uterine membrane was prepared by a method of Soroff, et al. (J. Biol. Chem., 249: 1376, 1974) while a binding assay was performed by a method of Pettibone, et al. (Endocrinology, 125: 217, 1989). Diethylstilbestrol dipropionate (0.3 mg/kg) was administered to a rat intraperitoneally, and after 18 to 24 hours, uterus was excised, and a membrane sample was prepared therefrom. [^3H]-Oxytocin (0.5 nM; specific activity=30 to 60 Ci/mmol), 50 μg of the membrane sample and a test drug (10^−8 to 10^−5 M) were incubated at room temperature for 60 minutes in 250 μl (total volume) of 50 mM Tris hydrochloride buffer (pH 7.4) containing 10 mM of magnesium chloride and 0.1% of bovine serum albumin (BSA). […] The glass filter was taken out, well dried and mixed with a cocktail for liquid scintillation, the amount of [^3H]-oxytocin bound to the sample was determined by a liquid scintillation counter, and the inhibition rate was calculated from the following equation: […]
wherein [L] is a concentration of the radioactive ligand; and Kd is a dissociation constant calculated from the scattered plots.
Then, a negative logarithmic value of Ki calculated hereinabove was taken as pKi. […]

CCOc1ccc(C[C@H]2NC(=O)CCSSC[C@@H](C(=O)N3CCC[C@H]3C(=O)N[C@@H](CCCN)C(=O)NCC(N)=O)NC(=O)[C@H](CC(N)=O)NC(=O)[C@H]([C@@H](C)O)NC(=O)[C@H]([C@@H](C)CC)NC2=O)cc1 [atosiban] ([Mpa][dY](Et)ITNCP[Orn]G-NH2; disulfide 1-6) gave a Ki of 11.7 nM.
